Test results as given in PMC7049213, “Nerylneryl diphosphate is the precursor of serrulatane, viscidane and cembrane-type diterpenoids in Eremophila species” (BMC Plant Biology, 2020).

What was measured:
Assay in all cases: co-expression with SlCPT2 in E. coli and N. benthamiana, GC-MS
Type in all cases: cell-based
Conditions in all cases: NNPP formed in cells by SlCPT2; E. coli 18 °C, 48 h
EdtTPS4 = biological target: T1, EdtTPS4 (Eremophila denticulata, UniProt A0A6G9KV06)
T1 construct: full length in N. benthamiana; TPS-a class I
T1 sequence (A0A6G9KV06 entry or part of it): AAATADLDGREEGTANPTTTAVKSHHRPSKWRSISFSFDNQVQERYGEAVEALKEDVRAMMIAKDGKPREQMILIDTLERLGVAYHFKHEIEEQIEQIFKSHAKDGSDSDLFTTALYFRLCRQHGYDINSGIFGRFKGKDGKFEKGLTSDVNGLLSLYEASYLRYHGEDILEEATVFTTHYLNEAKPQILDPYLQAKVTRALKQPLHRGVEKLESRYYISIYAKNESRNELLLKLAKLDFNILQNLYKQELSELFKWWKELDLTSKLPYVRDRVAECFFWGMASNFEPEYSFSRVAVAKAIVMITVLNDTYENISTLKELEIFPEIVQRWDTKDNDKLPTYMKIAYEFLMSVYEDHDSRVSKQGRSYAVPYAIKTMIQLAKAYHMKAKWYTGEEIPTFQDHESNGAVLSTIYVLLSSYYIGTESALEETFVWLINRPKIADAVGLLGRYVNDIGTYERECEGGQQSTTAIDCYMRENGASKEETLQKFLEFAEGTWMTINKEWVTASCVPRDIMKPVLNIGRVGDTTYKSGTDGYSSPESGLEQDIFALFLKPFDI

ElTPS31 = biological target: T2, ElTPS31 (Eremophila lucida, UniProt A0A6G9KSS8)
T2 construct: full length in N. benthamiana; TPS-b class I
T2 sequence (A0A6G9KSS8 entry or part of it): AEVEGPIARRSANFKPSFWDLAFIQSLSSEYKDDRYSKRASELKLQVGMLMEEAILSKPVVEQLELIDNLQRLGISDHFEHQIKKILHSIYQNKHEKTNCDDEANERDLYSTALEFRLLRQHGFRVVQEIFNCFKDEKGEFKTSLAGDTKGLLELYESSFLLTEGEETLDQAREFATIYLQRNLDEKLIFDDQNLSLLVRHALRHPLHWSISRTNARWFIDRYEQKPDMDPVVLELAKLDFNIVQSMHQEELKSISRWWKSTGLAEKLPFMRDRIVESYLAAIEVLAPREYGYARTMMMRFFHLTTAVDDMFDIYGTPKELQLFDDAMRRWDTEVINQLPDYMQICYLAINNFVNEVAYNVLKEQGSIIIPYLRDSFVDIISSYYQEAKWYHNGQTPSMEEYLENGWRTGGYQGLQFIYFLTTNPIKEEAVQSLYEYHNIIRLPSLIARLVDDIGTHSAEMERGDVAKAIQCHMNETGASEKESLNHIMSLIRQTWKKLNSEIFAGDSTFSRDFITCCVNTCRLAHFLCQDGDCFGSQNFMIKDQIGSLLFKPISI

ElTPS3 = biological target: T3, ElTPS3 (Eremophila lucida, UniProt A0A6G9KVC7)
T3 construct: full length in N. benthamiana; TPS-a class I
T3 sequence (A0A6G9KVC7 entry or part of it): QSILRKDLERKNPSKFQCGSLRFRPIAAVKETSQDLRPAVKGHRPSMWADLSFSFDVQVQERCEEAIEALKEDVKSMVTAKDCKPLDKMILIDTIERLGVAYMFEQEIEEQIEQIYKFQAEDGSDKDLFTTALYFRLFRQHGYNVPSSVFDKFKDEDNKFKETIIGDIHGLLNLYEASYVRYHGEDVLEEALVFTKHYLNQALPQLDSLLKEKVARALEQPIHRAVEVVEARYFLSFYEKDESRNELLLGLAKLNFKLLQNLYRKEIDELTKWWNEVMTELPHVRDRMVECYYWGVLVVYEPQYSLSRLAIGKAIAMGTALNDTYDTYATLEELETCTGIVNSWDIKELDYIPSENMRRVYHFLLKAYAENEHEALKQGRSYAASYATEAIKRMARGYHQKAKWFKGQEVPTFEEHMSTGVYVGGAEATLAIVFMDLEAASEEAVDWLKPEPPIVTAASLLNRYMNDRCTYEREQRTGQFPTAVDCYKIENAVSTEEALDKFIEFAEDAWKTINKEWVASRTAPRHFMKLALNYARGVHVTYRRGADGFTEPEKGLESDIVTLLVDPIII

EdTPS22 = biological target: T4, EdTPS22 (Eremophila drummondii, UniProt A0A6G9KSU3)
T4 construct: full length in N. benthamiana; TPS-a class I
T4 sequence (A0A6G9KSU3 entry or part of it): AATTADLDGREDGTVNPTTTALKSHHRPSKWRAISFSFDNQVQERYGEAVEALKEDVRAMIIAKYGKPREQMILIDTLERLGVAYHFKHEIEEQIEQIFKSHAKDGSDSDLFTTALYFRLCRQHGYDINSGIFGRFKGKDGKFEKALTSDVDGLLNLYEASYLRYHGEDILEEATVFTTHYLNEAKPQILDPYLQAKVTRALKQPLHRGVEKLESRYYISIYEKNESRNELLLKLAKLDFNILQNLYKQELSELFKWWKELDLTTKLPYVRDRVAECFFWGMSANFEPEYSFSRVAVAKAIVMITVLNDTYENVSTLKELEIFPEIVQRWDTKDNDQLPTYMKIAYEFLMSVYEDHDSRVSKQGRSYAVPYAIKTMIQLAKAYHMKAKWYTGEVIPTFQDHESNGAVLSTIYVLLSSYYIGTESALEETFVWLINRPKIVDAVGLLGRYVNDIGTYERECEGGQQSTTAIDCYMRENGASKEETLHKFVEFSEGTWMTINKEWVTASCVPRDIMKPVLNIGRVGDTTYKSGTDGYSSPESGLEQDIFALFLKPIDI

**Q.** What does the source list for CC(C)=CCC/C(C)=C\CC/C(C)=C\CC/C(C)=C\COP(=O)(O)OP(=O)(O)O [nerylneryl diphosphate]?
**A.** co-expression with SlCPT2 in E. coli and N. benthamiana, GC-MS (EdtTPS4): co-expression of either one of ElTPS3, ElTPS31, EdtTPS4 or EdTPS22 with NNPP-forming SlCPT2; co-expression with SlCPT2 in E. coli and N. benthamiana, GC-MS (ElTPS31): co-expression of either one of ElTPS3, ElTPS31, EdtTPS4 or EdTPS22 with NNPP-forming SlCPT2; co-expression with SlCPT2 in E. coli and N. benthamiana, GC-MS (ElTPS3): co-expression of either one of ElTPS3, ElTPS31, EdtTPS4 or EdTPS22 with NNPP-forming SlCPT2; co-expression with SlCPT2 in E. coli and N. benthamiana, GC-MS (EdTPS22): co-expression of either one of ElTPS3, ElTPS31, EdtTPS4 or EdTPS22 with NNPP-forming SlCPT2
